Data on two compounds can be found in patent publication US12503469B2, “Forms of methyl {4,6-diamino-2-[1-(2-fluorobenzyl)-1H-pyrazolo[3-4-b]pyridino-3-yl]pyrimidino-5-yl} methyl carbamate” (Adverio Pharma GmbH, priority 2013, dated 2025).

This data set in a line: Solid-state stability of the forms of the compound of formula (I). It counts as physicochemical.

`COC(=O)N(C)c1c(N)nc(-c2nn(Cc3ccccc3F)c3ncccc23)nc1N` [Modification I, methyl {4,6-diamino-2-[1-(2-fluorobenzyl)-1H-pyrazolo[3,4-b]pyridino-3-yl]pyrimidino-5-yl}methylcarbamate]: the “thermodynamic stability of the form” value (between 0° C. and 80° C.) was “thermodynamically stable form between 0 °C and 80 °C”.

In the case of `COC(=O)N(C)c1c(N)nc(-c2nn(Cc3ccccc3F)c3ncccc23)nc1N` [amorphous form, methyl {4,6-diamino-2-[1-(2-fluorobenzyl)-1H-pyrazolo[3,4-b]pyridin-3-yl]pyrimidin-5-yl}methylcarbamate], the “stability of the amorphous form against crystallization” value (room temperature) was “can exist at room temperature, but crystallizes very quickly”.
